Test results published in ChEMBL document CHEMBL1649108, “Discovery of AMG 369, a Thiazolo[5,4-b]pyridine Agonist of S1P1 and S1P5” (ACS Med Chem Lett, 2011).
Each block holds one molecule with its values, some of them ahead of it. Activity calls are given as the source filed them. The calls are words filed in the database; no cut-off is given here.

Columns and labels:
[1] = biological target: T1, Sphingosine 1-phosphate receptor 1 (Homo sapiens, UniProt P21453); experiment: Induction of human GFP-tagged chimeric S1P1R internalization in human U2Os cells by fluorescence microscopy; assay type: cell-based
T1 sequence (P21453 whole entry): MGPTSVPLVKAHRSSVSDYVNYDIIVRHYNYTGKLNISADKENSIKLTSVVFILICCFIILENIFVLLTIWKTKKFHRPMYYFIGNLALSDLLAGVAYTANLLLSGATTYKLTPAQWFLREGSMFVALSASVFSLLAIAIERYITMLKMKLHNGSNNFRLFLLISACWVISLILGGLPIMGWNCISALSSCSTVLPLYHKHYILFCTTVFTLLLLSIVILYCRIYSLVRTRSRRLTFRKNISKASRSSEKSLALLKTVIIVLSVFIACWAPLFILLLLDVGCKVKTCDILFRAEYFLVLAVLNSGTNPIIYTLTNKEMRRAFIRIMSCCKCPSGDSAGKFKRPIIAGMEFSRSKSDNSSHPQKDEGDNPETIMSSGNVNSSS

[2] = biological target: T2, Sphingosine 1-phosphate receptor 3 (Homo sapiens, UniProt Q99500); experiment: Agonist activity at human S1P3R expressed in CHO cells by Ca(2+) mobilization assay relative to S1P; assay type: functional, cell-based; set-up: concentration or dose not given beside the values
T2 sequence (Q99500 whole entry): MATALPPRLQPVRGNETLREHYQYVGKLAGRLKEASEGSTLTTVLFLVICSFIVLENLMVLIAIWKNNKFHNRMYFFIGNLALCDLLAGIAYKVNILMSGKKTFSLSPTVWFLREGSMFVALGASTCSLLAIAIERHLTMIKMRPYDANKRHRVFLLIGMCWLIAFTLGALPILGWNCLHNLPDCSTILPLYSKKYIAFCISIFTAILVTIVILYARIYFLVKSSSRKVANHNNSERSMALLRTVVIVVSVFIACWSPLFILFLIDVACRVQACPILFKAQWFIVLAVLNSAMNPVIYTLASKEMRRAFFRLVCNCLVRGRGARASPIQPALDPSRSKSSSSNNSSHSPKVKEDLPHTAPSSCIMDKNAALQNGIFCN

[3] = biological target: T2, Sphingosine 1-phosphate receptor 3; experiment: Agonist activity at human S1P3R expressed in CHO cells by Ca(2+) mobilization assay; assay type: functional, cell-based
[4] = Volume of distribution at steady state in Sprague-Dawley rat at 1 mg/kg, iv or 2 mg/kg, po; assay type: ADME, organism-based; conditions: in vivo, read-out: Vdss
[5] = Clearance in Sprague-Dawley rat at 1 mg/kg, iv or 2 mg/kg, po; assay type: ADME, organism-based; conditions: in vivo
[6] = Mean residence time in Sprague-Dawley rat at 1 mg/kg, iv or 2 mg/kg, po; assay type: ADME, organism-based; conditions: in vivo
Rattus norvegicus [7] = experiment: Reduction of disease score in experimental autoimmune encephalitis Lewis rat model of multiple sclerosis at 20 ug/day, po administered at the time of immunization with guinea pig myelin basic protein
[8] = Volume of distribution at steady state in Beagle dog at 1 mg/kg, iv or 1 mg/kg, po; assay type: ADME, organism-based, Canis lupus familiaris; conditions: in vivo, read-out: Vdss
[9] = biological target: Sphingosine 1-phosphate receptor 2 (Homo sapiens) (UniProt O95136); experiment: Agonist activity at human S1P2R expressed in CHO cells by Ca(2+) mobilization assay; assay type: functional, cell-based
Sequence of Sphingosine 1-phosphate receptor 2 (Homo sapiens) (O95136 whole entry): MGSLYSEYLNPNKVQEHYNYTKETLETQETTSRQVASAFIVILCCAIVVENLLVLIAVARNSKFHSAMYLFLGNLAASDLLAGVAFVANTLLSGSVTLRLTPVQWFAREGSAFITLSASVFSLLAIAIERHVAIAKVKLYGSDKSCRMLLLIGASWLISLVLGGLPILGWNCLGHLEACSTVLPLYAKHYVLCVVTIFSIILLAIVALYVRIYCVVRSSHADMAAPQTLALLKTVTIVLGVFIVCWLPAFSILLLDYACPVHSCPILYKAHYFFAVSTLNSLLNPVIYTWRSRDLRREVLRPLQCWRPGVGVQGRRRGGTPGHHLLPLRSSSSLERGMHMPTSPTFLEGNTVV

[10] = Oral bioavailability in Beagle dog 1 mg/kg; assay type: ADME, organism-based, Canis lupus familiaris; conditions: in vivo
[11] = Mean residence time in Beagle dog at 1 mg/kg, iv or 1 mg/kg, po; assay type: ADME, organism-based, Canis lupus familiaris; conditions: in vivo
Rattus norvegicus [12] = experiment: Reduction of disease score in experimental autoimmune encephalitis Lewis rat model of multiple sclerosis at 2 ug/day, po administered at the time of immunization with guinea pig myelin basic protein
Rattus norvegicus [13] = experiment: Toxicity in telemetered Sprague-Dawley rat assessed as change in mean arterial pressure at 10 mg/kg, po; assay type: organism-based, Artery; set-up: dose 10 mg/kg, route oral; conditions: in vivo
[14] = Clearance in Beagle dog at 1 mg/kg, iv or 1 mg/kg, po; assay type: ADME, organism-based, Canis lupus familiaris; conditions: in vivo
[15] = biological target: Voltage-gated inwardly rectifying potassium channel KCNH2 (Homo sapiens, UniProt Q12809); experiment: Inhibition of human ERG at 2.3 uM by patch-clamp method
Sequence of Voltage-gated inwardly rectifying potassium channel KCNH2 (Q12809 whole entry): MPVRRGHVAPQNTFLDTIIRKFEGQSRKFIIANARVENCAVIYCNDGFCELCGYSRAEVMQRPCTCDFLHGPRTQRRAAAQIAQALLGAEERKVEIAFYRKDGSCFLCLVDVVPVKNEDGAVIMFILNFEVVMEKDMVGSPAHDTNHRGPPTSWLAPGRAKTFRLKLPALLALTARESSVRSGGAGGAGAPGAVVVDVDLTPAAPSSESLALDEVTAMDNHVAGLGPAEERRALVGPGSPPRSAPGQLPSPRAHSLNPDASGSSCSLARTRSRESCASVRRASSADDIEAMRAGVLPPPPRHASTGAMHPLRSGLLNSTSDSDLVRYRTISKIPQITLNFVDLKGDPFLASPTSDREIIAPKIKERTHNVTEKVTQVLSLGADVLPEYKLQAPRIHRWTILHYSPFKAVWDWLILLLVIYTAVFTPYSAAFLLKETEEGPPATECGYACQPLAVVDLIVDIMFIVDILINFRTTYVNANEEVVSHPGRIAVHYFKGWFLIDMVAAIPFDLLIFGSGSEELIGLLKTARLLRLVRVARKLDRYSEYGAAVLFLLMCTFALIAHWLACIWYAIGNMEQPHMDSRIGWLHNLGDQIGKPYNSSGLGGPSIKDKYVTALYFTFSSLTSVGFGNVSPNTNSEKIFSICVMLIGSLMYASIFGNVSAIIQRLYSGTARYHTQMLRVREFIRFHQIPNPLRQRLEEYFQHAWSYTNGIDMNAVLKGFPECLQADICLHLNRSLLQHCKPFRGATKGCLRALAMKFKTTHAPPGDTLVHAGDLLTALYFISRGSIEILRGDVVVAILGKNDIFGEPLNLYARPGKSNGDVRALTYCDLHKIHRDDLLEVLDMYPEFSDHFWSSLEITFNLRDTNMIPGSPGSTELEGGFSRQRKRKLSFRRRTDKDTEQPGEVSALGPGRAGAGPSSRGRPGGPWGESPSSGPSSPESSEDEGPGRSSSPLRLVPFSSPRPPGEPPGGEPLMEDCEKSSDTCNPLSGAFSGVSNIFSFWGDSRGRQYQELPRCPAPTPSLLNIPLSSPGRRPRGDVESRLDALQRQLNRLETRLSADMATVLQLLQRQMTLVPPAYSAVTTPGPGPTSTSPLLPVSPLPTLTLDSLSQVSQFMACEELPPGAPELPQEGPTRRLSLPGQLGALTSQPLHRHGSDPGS

Rattus norvegicus [16] = experiment: Lymphopenic activity in Lewis rat assessed as reduction in blood lymphocyte counts at 0.03 mg/kg, po administered as single dose measured 24 hrs post dose; assay type: functional
[17] = Oral bioavailability in cynomolgus monkey 1 mg/kg; assay type: ADME, organism-based, Macaca fascicularis; conditions: in vivo
[18] = biological target: T3, Sphingosine 1-phosphate receptor 4 (Homo sapiens) (UniProt O95977); experiment: Agonist activity at human S1P4R expressed in CHO cells by Ca(2+) mobilization assay; assay type: functional, cell-based
T3 sequence (whole entry): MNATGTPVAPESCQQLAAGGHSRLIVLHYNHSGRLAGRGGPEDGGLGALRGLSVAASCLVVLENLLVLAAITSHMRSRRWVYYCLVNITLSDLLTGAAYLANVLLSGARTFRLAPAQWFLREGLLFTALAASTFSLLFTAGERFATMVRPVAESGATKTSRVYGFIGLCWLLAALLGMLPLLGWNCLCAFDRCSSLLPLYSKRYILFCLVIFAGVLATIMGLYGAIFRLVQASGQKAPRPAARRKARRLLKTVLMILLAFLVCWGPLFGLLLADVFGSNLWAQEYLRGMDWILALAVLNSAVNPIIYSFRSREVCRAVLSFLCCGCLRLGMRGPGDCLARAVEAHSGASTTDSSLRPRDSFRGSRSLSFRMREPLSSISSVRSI

[19] = Half life in Beagle dog at 1 mg/kg, iv or 1 mg/kg, po; assay type: ADME, organism-based, Canis lupus familiaris; conditions: in vivo
[20] = Oral bioavailability in Sprague-Dawley rat 2 mg/kg; assay type: ADME, organism-based; conditions: in vivo
Rattus norvegicus [21] = experiment: Toxicity in telemetered Sprague-Dawley rat assessed as effect on heart rate at 10 mg/kg, po; assay type: organism-based; set-up: dose 10 mg/kg, route oral; conditions: in vivo
[22] = Half life in cynomolgus monkey at 1 mg/kg, iv or 1 mg/kg, po; assay type: ADME, organism-based, Macaca fascicularis; conditions: in vivo
[23] = biological target: T4, Sphingosine 1-phosphate receptor 5 (Homo sapiens, UniProt Q9H228); experiment: Agonist activity at human S1P5R expressed in CHO cells by Ca(2+) mobilization assay; assay type: functional, cell-based
T4 sequence (Q9H228 whole entry): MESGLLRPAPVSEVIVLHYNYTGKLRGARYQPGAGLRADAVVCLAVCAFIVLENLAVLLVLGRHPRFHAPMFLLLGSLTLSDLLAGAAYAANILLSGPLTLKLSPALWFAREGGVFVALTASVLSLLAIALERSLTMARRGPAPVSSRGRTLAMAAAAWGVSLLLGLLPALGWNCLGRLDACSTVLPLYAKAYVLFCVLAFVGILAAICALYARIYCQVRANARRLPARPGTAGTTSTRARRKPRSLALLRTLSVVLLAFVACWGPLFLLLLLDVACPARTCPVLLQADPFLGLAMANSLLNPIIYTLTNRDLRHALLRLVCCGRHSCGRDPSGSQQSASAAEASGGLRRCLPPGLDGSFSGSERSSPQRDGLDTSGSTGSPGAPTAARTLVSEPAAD

[24] = biological target: T1, Sphingosine 1-phosphate receptor 1; experiment: Induction of human GFP-tagged chimeric S1P1R internalization in human U2Os cells by fluorescence microscopy relative to 1-(4-(6-benzylbenzofuran-2-yl)-3-fluorobenzyl)azetidine-3-carboxylic acid; assay type: cell-based
Rattus norvegicus [25] = experiment: Lymphopenic activity in orally dosed Lewis rat assessed as reduction in blood lymphocyte counts measured 24 hrs post dose; assay type: functional, organism-based
[26] = Inhibition of Cytochrome P450; assay type: ADME
[27] = Mutagenic activity in Salmonella Typhimurium by Ames assay; assay type: toxicity; conditions: salmonella enterica subsp. enterica serovar typhimurium
[28] = Mean residence time in cynomolgus monkey at 1 mg/kg, iv or 1 mg/kg, po; assay type: ADME, organism-based, Macaca fascicularis; conditions: in vivo
[29] = Clearance in cynomolgus monkey at 1 mg/kg, iv or 1 mg/kg, po; assay type: ADME, organism-based, Macaca fascicularis; conditions: in vivo
[30] = Half life in Sprague-Dawley rat at 1 mg/kg, iv or 2 mg/kg, po; assay type: ADME, organism-based; conditions: in vivo
Rattus norvegicus [31] = experiment: Lymphopenic activity in Lewis rat assessed as reduction in blood lymphocyte counts at 0.1 mg/kg, po administered as single dose measured 24 hrs post dose; assay type: functional
[32] = biological target: T4, Sphingosine 1-phosphate receptor 5; experiment: Agonist activity at human S1P5R expressed in CHO cells by Ca(2+) mobilization assay relative to control; assay type: functional, cell-based
Rattus norvegicus [33] = experiment: Induction of delay in onset of disease in experimental autoimmune encephalitis Lewis rat model of multiple sclerosis at 20 ug/day, po administered at the time of immunization with guinea pig myelin basic protein
[34] = Volume of distribution at steady state in cynomolgus monkey at 1 mg/kg, iv or 1 mg/kg, po; assay type: ADME, organism-based, Macaca fascicularis; conditions: in vivo, read-out: Vdss
Rattus norvegicus [35] = experiment: Lymphopenic activity in Lewis rat assessed as reduction in blood lymphocyte counts at 1 mg/kg, po administered as single dose measured 24 hrs post dose; assay type: functional, organism-based; set-up: dose 1 mg/kg
[36] = biological target: T2, Sphingosine 1-phosphate receptor 3; experiment: Agonist activity at human S1P3R expressed in CHO cells at 2.5 uM by Ca(2+) mobilization assay relative to S1P; assay type: functional, cell-based

Activity [2]: 24% | Efficacy [24]: 102%
Compound: O=C(O)C1CN(Cc2ccc(-c3nc4cc(Cc5ccccc5)ccc4s3)c(F)c2)C1
inhibition (Rattus norvegicus [35]): Active

EC50 [1]: 3980 nM | Activity [2]: 64% | Efficacy [24]: 77% | EC50 [3]: 5460 nM
Compound: O=C(O)C1CN(Cc2ccc(-c3nc4cnc(Cc5ccccc5)cc4s3)c(F)c2)C1

EC50 [1]: 1600 nM | Efficacy [24]: 75% | EC50 [3]: > 25000 nM
Compound: O=C(O)C1CN(Cc2ccc(-c3nc4ncc(Cc5ccccc5)cc4s3)c(F)c2)C1

EC50 [1]: 429 nM | Efficacy [24]: 115% | EC50 [3]: > 25000 nM
Compound: O=C(O)C1CN(Cc2ccc(-c3nc4cc(Cc5ccccc5)ncc4s3)c(F)c2)C1

EC50 [1]: 26 nM | Efficacy [36]: 12% | Efficacy [24]: 76%
Compound: O=C(O)C1CN(Cc2ccc(-c3nc4ccc(C5(c6ccccc6)CCCC5)nc4s3)c(F)c2)C1

More lines, now with the values behind:

Compound: O=C(O)C1CN(Cc2ccc(-c3nc4ccc(Cc5ccccc5)cc4s3)c(F)c2)C1
EC50 [1]: 221 nM | Activity [2]: 50% | EC50 [3]: 3470 nM

Compound: O=C(O)C1CN(Cc2ccc(-c3nc4ccc(C5(c6ccccc6)CC5)nc4s3)c(F)c2)C1
Vd [4]: 1.8 L/kg | clearance [5]: 3 mL/min/kg | MRT [6]: 10 h | Activity (Rattus norvegicus [7]): Active | Vd [8]: 1.2 L/kg | Activity [9]: inactive | bioavailability [10]: 41% | MRT [11]: 17 h | Activity (Rattus norvegicus [12]): inactive | Activity (Rattus norvegicus [13]): Non-toxic | clearance [14]: 1.18 mL/min/kg | inhibition (INH) [15]: Not Active | inhibition in vivo at 0.03 mg/kg (Rattus norvegicus [16]): 45% | bioavailability [17]: 34% | Activity [18]: inactive | half-life [19]: 38 h | bioavailability [20]: 64% | Activity (Rattus norvegicus [21]): Non-toxic | Activity [2]: 26% | half-life [22]: 24 h | EC50 [23]: 29 nM | Efficacy [24]: 98% | inhibition (Rattus norvegicus [25]): Dose-dependent effect | inhibition (INH) [26]: Not Active | Activity [27]: Non-toxic | MRT [28]: 4.7 h | clearance [29]: 8.33 mL/min/kg | half-life [30]: 5.9 h | inhibition in vivo at 0.1 mg/kg (Rattus norvegicus [31]): 65% | Efficacy [32]: 50% | Activity (Rattus norvegicus [33]): Active | Vd [34]: 2.3 L/kg

Compound: O=C(O)C1CN(Cc2ccc(-c3nc4ccc(C5(c6ccccc6)CC5)cc4s3)c(F)c2)C1
EC50 [1]: 38 nM | Activity [2]: 56% | Efficacy [24]: 93% | EC50 [3]: 4670 nM

Compound: O=C(O)C1CN(Cc2ccc(-c3nc4ccc(C5(c6ccccc6)CCCCC5)nc4s3)c(F)c2)C1
EC50 [1]: 33 nM | Activity [2]: 41% | Efficacy [24]: 108% | EC50 [3]: 836 nM

Compound: O=C(O)C1CN(Cc2ccc(-c3nc4cc(Cc5ccccc5)cnc4s3)c(F)c2)C1
EC50 [1]: 138 nM | Activity [2]: 36% | Efficacy [24]: 125% | EC50 [3]: 2890 nM

Compound: C[C@@H](c1ccccc1)c1ccc2nc(-c3ccc(CN4CC(C(=O)O)C4)cc3F)sc2n1
EC50 [1]: 35 nM | Activity [2]: 44% | Efficacy [24]: 99% | EC50 [3]: 877 nM

Compound: CC(C)(c1ccccc1)c1ccc2nc(-c3ccc(CN4CC(C(=O)O)C4)cc3F)sc2n1
EC50 [1]: 33 nM | Activity [2]: 64% | Efficacy [24]: 103% | EC50 [3]: 2510 nM

Compound: O=C(O)C1CN(Cc2ccc(-c3nc4nc(Cc5ccccc5)ccc4s3)c(F)c2)C1
EC50 [1]: 144 nM | Activity [2]: 63% | Efficacy [24]: 106% | EC50 [3]: 10100 nM

Compound: O=C(O)C1CN(Cc2ccc(-c3nc4ccc(C5(c6ccccc6)CCC5)nc4s3)c(F)c2)C1
EC50 [1]: 119 nM | Activity [2]: 68% | Efficacy [24]: 124% | EC50 [3]: 1310 nM

Compound: C[C@H](c1ccccc1)c1ccc2nc(-c3ccc(CN4CC(C(=O)O)C4)cc3F)sc2n1
EC50 [1]: 38 nM | Activity [2]: 45% | Efficacy [24]: 87% | EC50 [3]: 996 nM

Compound: O=C(O)C1CN(Cc2ccc(-c3nc4ccc(Cc5ccccc5)nc4s3)c(F)c2)C1
EC50 [1]: 199 nM | Activity [2]: 94% | Efficacy [24]: 92% | EC50 [3]: 478 nM
